Data published in BigSolDB 2.1.

COc1ccc2c(c1)c(CC(=O)O)c(C)n2C(=O)c1ccc(Cl)cc1
Conditions	solubility (mole fraction)
in PEG-400, 293.15 K	0.0751
in PEG-400, 298.15 K	0.0831
in PEG-400, 303.15 K	0.0923
in PEG-400, 308.15 K	0.102
in PEG-400, 313.15 K	0.114
in PEG-400, 318.15 K	0.127

in water
Conditions	solubility (mole fraction)
293.15 K	4.73e-08
298.15 K	5e-08
303.15 K	5.31e-08
308.15 K	5.58e-08
313.15 K	5.85e-08
318.15 K	6.16e-08
